# Key:
# [1] = system: UVA-irradiated epidermal substitutes cultured on adult fibroblast monolayer; assay: Gene expression in UVA-irradiated epidermal substitutes; GEO matching; assay type: cell-based
# Description: (GSE: GEO Series; GPL: GEO Platforms; stats between −0.05 and 0.05 considered not significant match).
# (GSE: GEO Series; GPL: GEO Platforms; stats between −0.05 and 0.05 considered not a significant match).
# cytokine-treated HEK = assay: Morphology of cytokine-treated HEK; assay type: cell-based, human; conditions: 10 μg/ml; IL17A, IL22 and TNF-alpha
# Description: This is in agreement with the Example 3, showing that SBD.SE decreases cellular response to cytokine stimulus (Table 1).
# [2] = UVB irradiation, HPLC-MS profile; assay type: physicochemical
# Description: Both compounds were irradiated with UVB light and their HPLC-MS profile was compared to their respective non-irradiated controls. FIGS. 2, 3, 6, and 7 show HPLC chromatograms of UVB-irradiated (lower portions) and non-irradiated samples (upper portions) of bakuchiol (FIGS. 2 and 3) and SBD.SE (FIGS. 6 and 7) detected at 254 nm (FIGS. 2 and 6) and 230 nm (FIGS. 3 and 7).
# [3] = system: mouse melanoma cells (B16F10); assay: B16F10 melanoma growth and melanin; assay type: cell-based
# Description: Instead, cells cultured in the presence of SBD.SE grew slower and if allowed to reach monolayer, they become growth-arrested due to contact inhibition. […] Other retinoids, such as bexarotene, are known to have antineoplastic activity against cancers such as cutaneous T cell lymphoma.
# The mechanism of action for this effect may be multifactorial and involve the inhibition of tyroinase and/or melanin secretion by melanocytes.
# RAR = assay: Cignal RAR reporter assay; assay type: cell-based; conditions: up to 50 μg/ml
# Description: Tissue irritation is a common side effect of retinoids. It is mediated, at least in part, by retinoid interaction with retinoic acid receptors (RARs; Thacher S M, Vasudevan J, Chandraratna R A. Therapeutic applications for ligands of retinoid receptors. Curr Pharm Des. 2000 January; 6(1):25-58; Kambayashi H, Odake Y, Takada K, Funasaka Y, Ichihashi M, Kato S. N-retinoyl-D-glucosamine, a new retinoic acid agonist, mediates topical retinoid efficacy with no irritation on photoaged skin. Br J Dermatol. 2005 December; 153 Suppl 2:30-6).
# adult HEK = assay: Adult HEK proliferation; assay type: cell-based, human; conditions: 2.5 μg/ml
smiles,measurement,setting,value
"C=C[C@@](C)(/C=C/c1ccc(OC(=O)c2ccccc2O)cc1)CCC=C(C)C [SBD.SE, Salicylic acid ester of bakuchiol]",GEO match Stat,[1]; vitro132 HaCaT keratinocytes cidofovir -VS- HaCaT keratinocytes untreated (GSE39293/GPL570),−0.116
same,GEO match Stat,[1]; vitro134 keratinocytes keloid -VS- keratinocytes uninvolved (GSE44270/GPL6244),0.153
same,GEO match Stat,[1]; vitro137 N/TERT-1 keratinocytes miR-198 -VS- N/TERT-1 keratinocytes control (GSE37967/GPL10558),0.197
same,GEO match Stat,[1]; vitro139 HaCaT keratinocytes miR-483-3p overexpression -VS- HaCaT keratinocytes control (GSE19931/GPL1456),−0.08
same,GEO match Stat,[1]; vitro145 HaCaT keratinocytes cobalt(II) chloride 3 hrs -VS- HaCaT keratinocytes water control (GSE16727/GPL4133),0.1
same,GEO match Stat,"[1]; vitro147 HaCaT keratinocytes tungsten carbide cobalt 3 days -VS- HaCaT keratinocytes water control (GSE16727/GPL4133), not matching retinol palmitate",0.09
same,GEO match Stat,[1]; vitro148 HaCaT keratinocytes cobalt(II) chloride 3 hrs -VS- HaCaT keratinocytes water control (GSE16727/GPL4133),0.122
same,GEO match Stat,[1]; vitro150 reconstituted epidermis 0 hrs after 10 cGy radiation -VS- reconstituted epidermis control (GSE29344/GPL6883),−0.073
same,GEO match Stat,[1]; vitro151 reconstituted epidermis 3 hrs after 10 cGy radiation -VS- reconstituted epidermis control (GSE29344/GPL6883),−0.088
same,GEO match Stat,[1]; vitro152 reconstituted epidermis 8 hrs after 10 cGy radiation -VS- reconstituted epidermis control (GSE29344/GPL6883),−0.078
same,GEO match Stat,[1]; vitro153 reconstituted epidermis 24 hrs after 10 cGy radiation -VS- reconstituted epidermis control (GSE29344/GPL6883),−0.154
same,GEO match Stat,[1]; vitro156 reconstituted epidermis 8 hrs after 100 cGy radiation -VS- reconstituted epidermis control (GSE29344/GPL6883),−0.119
same,GEO match Stat,"[1]; vitro160 HaCaT keratinocytes 5′-aza-2-deoxycytidine -VS- HaCaT keratinocytes untreated (GSE33493/GPL6883), not matching retinol palmitate",−0.098
same,GEO match Stat,[1]; vitro165 HaCaT keratinocytes Ino-C2-PAF + IL1A + IL17 + IL22 + TNF + OsM -VS- HaCaT keratinocytes untreated (GSE37361/GPL13607),−0.119
same,GEO match Stat,"[1]; vivo1 PP skin -VS- PN skin (GSE2737/GPL91), not matching retinol palmitate",0.085
same,GEO match Stat,"[1]; vivo6 PP skin -VS- PN skin (GSE26866/GPL571), not matching retinol palmitate",0.127
same,GEO match Stat,"[1]; vivo7 PP skin -VS- PN skin (GSE30999/GPL570), not matching retinol palmitate",0.115
same,GEO match Stat,"[1]; vivo8 PP skin -VS- NN skin (GSE13355/GPL570), not matching retinol palmitate",0.123
same,GEO match Stat,"[1]; vivo9 PP skin -VS- NN skin (GSE14905/GPL570), not matching retinol palmitate",0.132
same,GEO match Stat,"[1]; vivo12 PP epidermis -VS- PN epidermis (GSE26866/GPL571), not matching retinol palmitate",0.084
same,GEO match Stat,"[1]; vivo15 PP skin 1 wk etanercept -VS- PN skin baseline (GSE11903/GPL571), not matching retinol palmitate",0.108
same,GEO match Stat,"[1]; vivo19 PP skin etanercept 1 wk -VS- PP skin baseline (GSE11903/GPL571), not matching retinol palmitate",−0.134
same,GEO match Stat,[1]; vivo25 PN skin IFNg-treated 24 hrs -VS- PN skin baseline (GSE32407/GPL571),−0.11
same,GEO match Stat,[1]; vivo26 PN skin IFNg-treated 24 hrs -VS- PN skin placebo 24 hrs (GSE32407/GPL571),−0.119
same,GEO match Stat,[1]; vivo27 NN skin IFNg-treated 24 hrs -VS- NN skin baseline (GSE32407/GPL571),−0.09
same,GEO match Stat,[1]; vivo32 atopic dermatitis uninvolved epidermis -VS- NN epidermis (GSE26952/GPL2700),0.098
same,GEO match Stat,[1]; vivo42 atopic dermatitis lesion -VS- NN skin (GSE5667/GPL96 + GPL97),0.11
same,GEO match Stat,[1]; vivo43 atopic dermatitis lesion -VS- uninvolved skin (GSE5667/GPL96 + GPL97),0.111
same,GEO match Stat,[1]; vivo49 epidermis sodium lauryl sulphate 11 days -VS- epidermis basline (GSE18206/GPL570),0.152
same,GEO match Stat,[1]; vivo50 epidermis nonanoic acid 30 min -VS- epidermis basline (GSE18206/GPL570),0.125
same,GEO match Stat,[1]; vivo51 epidermis nonanoic acid 4 hrs -VS- epidermis basline (GSE18206/GPL570),0.103
same,GEO match Stat,[1]; vivo53 epidermis nonanoic acid 11 days -VS- epidermis basline (GSE18206/GPL570),0.17
same,GEO match Stat,"[1]; vivo59 wound margin 7+ days healed -VS- NN skin (GSE8056/GPL570), not matching retinol palmitate",0.094
same,GEO match Stat,"[1]; vivo73 skin diffuse cutaneous systemic sclerosis -VS- NN skin (GSE32413/GPL4133), not matching retinol palmitate",0.088
same,GEO match Stat,"[1]; vivo76 skin isotretinoin 8 wks -VS- skin baseline (GSE11792/GPL571), not matching retinol palmitate",−0.128
same,GEO match Stat,[1]; vivo82 skin Haemophilus ducreyi infected -VS- skin PBS treated (GSE5547/GPL570),−0.105
same,GEO match Stat,"[1]; vivo83 basal cell carcinoma -VS- NN skin (GSE7553/GPL570), not matching retinol palmitate",0.081
same,GEO match Stat,"[1]; vivo85 squamous cell carcinoma -VS- NN skin (GSE7553/GPL570), not matching retinol palmitate",0.12
same,GEO match Stat,"[1]; vivo88 squamous cell carcinoma -VS- NN skin (GSE2503/GPL96), not matching retinol palmitate",0.111
same,GEO match Stat,"[1]; vivo93 melanoma in situ -VS- NN skin (GSE4587/GPL570), not matching retinol palmitate",0.102
same,GEO match Stat (inverse correlation with SBD.SE effect),[1]; vivo99 UVB radiation 1 minimal erythema dose -VS- untreated skin (GSE22083/GPL96),−0.088
same,GEO match Stat (inverse correlation with SBD.SE effect),[1]; vivo100 UVB radiation 100 J/m2 -VS- untreated skin (GSE22083/GPL96),−0.102
same,GEO match Stat (inverse correlation with SBD.SE effect),[1]; vivo101 UVA radiation 0.1 minimal erythema dose -VS- untreated skin (GSE22083/GPL96),−0.096
same,GEO match Stat,"[1]; vivo110 reticular dermis -VS- NN Skin (GSE42114/GPL570), not matching retinol palmitate",−0.074
same,GEO match Stat,[1]; vivo114 dermatomyositis -VS- NN Skin (GSE46239/GPL570),0.116
same,GEO match Stat,"[1]; vivo115 seborrheic keratosis -VS- uninvolved Skin (GSE22998/(GPL570)), not matching retinol palmitate",0.075
same,GEO match Stat,"[1]; vivo116 eschars in mediterranean spotted fever -VS- NN Skin (GSE32993/GPL6480), not matching retinol palmitate",0.097
same,GEO match Stat,[1]; vivo118 narrow-band UVB 24 hrs -VS- uninvolved skin (GSE41078/GPL571),−0.116
same,GEO match Stat,"[1]; vivo120 atopic dermatitis chronic -VS- uninvolved skin (GSE36842/GPL570), not matching retinol palmitate",0.125
same,cytokine-induced morphologic changes,cytokine-treated HEK,prevents these changes
same,stability under UVB irradiation (HPLC-MS),[2],no difference in mass of the peaks
same,growth of B16F10 cells,[3]; 1 μg/ml to 10 μg/ml,inhibited the growth
same,inhibition at 2.5 µg/mL,"[3]; Mus musculus, B16-F10, 2.5 μg/ml, read-out: inhibition of B16F10 melanocyte proliferation",44%
same,melanin in growth medium,[3]; versus darkened medium of water control,completely deprived of melanin
same,transactivation of RAR,RAR,no effect
same,inhibition of adult HEK proliferation,adult HEK,not inhibited

# From US10471035B2, “Compositions and methods for using esters of meroterpenes and of other resveratrol analogues” (Sunny BioDiscovery, priority 2014, dated 2019)
